# “Also recorded” adds a separate entry of the source.
# Key:
# Type in all cases: cell-based, human
# [1] = tested on: NCI-H929; assay: Cell cycle analysis (PI DNA content, flow cytometry); settings: NCI-H929, 500 pM, 4 days
# Method: (§1) Cells were incubated with 1 ml of hypotonic DNA staining buffer (1 mg/ml sodium citrate, 100 μg/ml PI, 20 μg/ml RNase A, and 0.3% Triton X-100 in dH2O) for 30-60 min at 4° C. in the dark. Cells were analyzed by flow cytometry and cell cycle analysis performed using FlowJo software with the Watson Model.
# (§2) Cells were incubated with 1 ml of hypotonic DNA staining buffer (1 mg/ml sodium citrate, 100 μg/ml PI, 20 μg/ml RNase A, and 0.3% Triton X-100) for 30-60 minutes at 4° C. in the dark. Cells were analyzed by flow cytometry and cell cycle analysis performed using FlowJo software with the Watson Model.
# [2] = tested on: U266; assay: as above; settings: U266, 500 pM, 4 days
# Method: as §1, §2
# [3] = tested on: primary myeloma cells from patients; assay: Treatment of primary myeloma cells from patients (trypan blue / MTT)
# Method: Trypan blue and MTT assays were used to determine the number of viable cells. The percentage of viable recovered cells was calculated based upon the number of viable cells recovered from DMSO-treated control cells, which was arbitrarily designated as 100%.
# Percent viable cell recovery was determined by trypan blue staining, with untreated control cells designated as 100%.
# [4] = tested on: ANBL-6; assay: Apoptosis assay (Annexin V / PI flow cytometry)
# Method: (§3) Cells were analyzed by flow cytometry using FlowJo software.
# (§4) Cells were stained with Alexa Fluor 488-labeled Annexin V and propidium iodide (PI) using the Vybrant Apoptosis Kit #2 (Molecular Probes) as per manufacturer's instructions and analyzed by flow cytometry.
# [5] = tested on: NCI-H929; assay: Apoptosis assay (Annexin V / PI flow cytometry)
# Method: as §3, §4
# [6] = tested on: 8226/S; assay: Apoptosis assay (Annexin V / PI flow cytometry)
# Method: as §3, §4
# [7] = tested on: OCI-My5; assay: Apoptosis assay (Annexin V / PI flow cytometry); settings: 3 days; for induction of apoptosis, result in words: OCI-My5, 500 pM (also 1 nM)
# Method: as §3, §4
# [8] = tested on: U266; assay: Apoptosis assay (Annexin V / PI flow cytometry)
# Method: as §3, §4
# [9] = tested on: MM1-144; assay: Apoptosis assay (Annexin V / PI flow cytometry)
# Method: as §3, §4
substance,measurement,setting,value
"anti-CD138-IFNα: Fusion protein: murine B-B4 anti-CD138 variable regions, human IgG1κ constant regions, human IFNα2 fused to the antibody C-terminus via SGGGGS linker",% G1,[1],41.9%
same,% G2/M,[1],24.3%
same,% S,[1],21.0%
same,>G2,[1],8.2%
same,Sub G0/G1,[1],18.9%
same,% G1,[2],53.9%
same,% G2/M,[2],15.1%
same,% S,[2],21.4%
same,>G2,[2],5.5%
same,Sub G0/G1,[2],13.2%
same,"viability of primary myeloma cells, result in words","[3]; 25 nM, 72 h",little effect
same,"viability of primary myeloma cells, result in words","[3]; 100 nM, 72 hours",significantly reduce cell viability
same,Mode of Action of anti-CD138-IFNα fusion,[4]; ANBL-6,Apoptosis
same,"induction of apoptosis at low concentration, result in words","[4]; ANBL-6, 1 pM, 3 days",did not cause apoptosis
same,"induction of apoptosis, result in words","[4]; ANBL-6, 500 pM, 3 days, listed as anti-CD138-IFNα2",caused apoptosis
same,Mode of Action of anti-CD138-IFNα fusion,[5]; H929,Apoptosis
same,"induction of apoptosis, result in words","[5]; H929 (NCI-H929), 500 pM, 3 days, listed as anti-CD138-IFNα2",caused apoptosis
same,"induction of apoptosis at low concentration, result in words","[5]; NCI-H929, 1 pM, 3 days",did not cause apoptosis
same,Mode of Action of anti-CD138-IFNα fusion,[6],Apoptosis
same,"induction of apoptosis at low concentration, result in words","[7]; OCI-My5, 5 pM",able to induce apoptosis
same,"induction of apoptosis, result in words",[7],did not induce apoptosis; also recorded: did not cause apoptosis or blocks to cell cycle progression
same,"induction of apoptosis, result in words",[7]; listed as anti-CD138-IFNα2,caused apoptosis
same,Mode of Action of anti-CD138-IFNα fusion,[8]; U266,Apoptosis
same,"induction of apoptosis at low concentration, result in words","[8]; U266, 1 pM, 3 days",able to induce apoptosis
same,"induction of apoptosis, result in words","[8]; U266, 500 pM, 3 days, listed as anti-CD138-IFNα2",caused apoptosis
same,"induction of apoptosis at low concentration, result in words","[9]; MM1-144, 1 pM, 3 days",did not cause apoptosis
same,Mode of Action of anti-CD138-IFNα fusion,[9]; MM144,Apoptosis
same,"induction of apoptosis, result in words","[9]; MM144 (MM1-144), 500 pM, 3 days",caused apoptosis

# Source: patent publication US9803021B2 (The Regents of the University of California, priority 2012, dated 2017)
